Test results as given in article PMC2778948, “A Novel Enediynyl Peptide Inhibitor of Furin That Blocks Processing of proPDGF-A, B and proVEGF-C” (PLoS ONE, 2009).
Where “and” joins values, the source holds several entries; their conditions need not be identical. Equal entries are not always repeated. Where two headings read alike, the source gives them in different places.

Legend:
[1] = molecular target: T1, soluble hPC7 (Homo sapiens, UniProt Q16549); assay: In vitro PC7 assay with Boc-RVRR-MCA (50 µM), aromatic enediyne compounds; type: biochemical
T1 construct: soluble hPC7 were obtained in partially purified form; made in house
T1 sequence (Q16549 142-667 limits assumed): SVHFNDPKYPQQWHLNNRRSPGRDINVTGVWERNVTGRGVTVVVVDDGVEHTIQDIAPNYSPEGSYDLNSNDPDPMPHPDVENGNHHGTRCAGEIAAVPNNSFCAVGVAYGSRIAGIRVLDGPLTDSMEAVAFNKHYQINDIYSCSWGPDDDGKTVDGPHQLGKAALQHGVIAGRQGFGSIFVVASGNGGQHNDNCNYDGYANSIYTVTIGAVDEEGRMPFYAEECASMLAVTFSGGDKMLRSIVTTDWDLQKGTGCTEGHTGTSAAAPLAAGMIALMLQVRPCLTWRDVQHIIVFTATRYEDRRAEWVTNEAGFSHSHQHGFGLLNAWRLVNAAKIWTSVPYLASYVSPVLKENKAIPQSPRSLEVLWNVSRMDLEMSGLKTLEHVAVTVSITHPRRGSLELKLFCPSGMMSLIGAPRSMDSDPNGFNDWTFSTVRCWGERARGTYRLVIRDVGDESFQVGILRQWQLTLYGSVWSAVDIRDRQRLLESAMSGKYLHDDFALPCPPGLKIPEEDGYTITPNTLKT
Excerpt: (§1) Most aromatic enediyne compounds are chemically highly reactive and can easily generate upon heating reactive bis-radical species via Bergman cyclo-aromatization reaction, [32]. It is a possibility that these reactive intermediates may then react with one or more of the catalytic amino acid residues His, Ser or Asp of PC-enzymes leading to chemical modifications of latter. This notion is supported by several studies involving interactions of amino acids either free or within protein sequences [41]–[46]. Based on this rationale we proposed that such types of molecules may therefore inhibit the protease activities of these enzymes. To test this hypothesis, we first synthesized several aromatic enediyne derivatives and examined in vitro their effects on proteolytic activities of three key members of PC-family enzymes namely furin, PC5 and PC7. In vitro enzyme assay of PCs against Boc-RVRR-MCA substrate (50 µM), in the absence and presence of various synthetic aromatic enediyne compounds (Fig. 1) indicated weak to modest inhibitory activities of these compounds. […] This is the first report of PC-inhibitory activity of an enediyne compound. […]
(§2) Figure 1 List of synthetic aromatic enediyne derivatives and their effects on protease activities of Proprotein Convertases Furin, PC5 and PC7. […] ND = not determined. […]

[2] = molecular target: T2, recombinant m (mouse) PC5 (Mus musculus, UniProt Q04592); assay: In vitro PC5 assay with Boc-RVRR-MCA (50 µM), aromatic enediyne compounds; type: biochemical
T2 construct: made in house
T2 sequence (Q04592 117-1877): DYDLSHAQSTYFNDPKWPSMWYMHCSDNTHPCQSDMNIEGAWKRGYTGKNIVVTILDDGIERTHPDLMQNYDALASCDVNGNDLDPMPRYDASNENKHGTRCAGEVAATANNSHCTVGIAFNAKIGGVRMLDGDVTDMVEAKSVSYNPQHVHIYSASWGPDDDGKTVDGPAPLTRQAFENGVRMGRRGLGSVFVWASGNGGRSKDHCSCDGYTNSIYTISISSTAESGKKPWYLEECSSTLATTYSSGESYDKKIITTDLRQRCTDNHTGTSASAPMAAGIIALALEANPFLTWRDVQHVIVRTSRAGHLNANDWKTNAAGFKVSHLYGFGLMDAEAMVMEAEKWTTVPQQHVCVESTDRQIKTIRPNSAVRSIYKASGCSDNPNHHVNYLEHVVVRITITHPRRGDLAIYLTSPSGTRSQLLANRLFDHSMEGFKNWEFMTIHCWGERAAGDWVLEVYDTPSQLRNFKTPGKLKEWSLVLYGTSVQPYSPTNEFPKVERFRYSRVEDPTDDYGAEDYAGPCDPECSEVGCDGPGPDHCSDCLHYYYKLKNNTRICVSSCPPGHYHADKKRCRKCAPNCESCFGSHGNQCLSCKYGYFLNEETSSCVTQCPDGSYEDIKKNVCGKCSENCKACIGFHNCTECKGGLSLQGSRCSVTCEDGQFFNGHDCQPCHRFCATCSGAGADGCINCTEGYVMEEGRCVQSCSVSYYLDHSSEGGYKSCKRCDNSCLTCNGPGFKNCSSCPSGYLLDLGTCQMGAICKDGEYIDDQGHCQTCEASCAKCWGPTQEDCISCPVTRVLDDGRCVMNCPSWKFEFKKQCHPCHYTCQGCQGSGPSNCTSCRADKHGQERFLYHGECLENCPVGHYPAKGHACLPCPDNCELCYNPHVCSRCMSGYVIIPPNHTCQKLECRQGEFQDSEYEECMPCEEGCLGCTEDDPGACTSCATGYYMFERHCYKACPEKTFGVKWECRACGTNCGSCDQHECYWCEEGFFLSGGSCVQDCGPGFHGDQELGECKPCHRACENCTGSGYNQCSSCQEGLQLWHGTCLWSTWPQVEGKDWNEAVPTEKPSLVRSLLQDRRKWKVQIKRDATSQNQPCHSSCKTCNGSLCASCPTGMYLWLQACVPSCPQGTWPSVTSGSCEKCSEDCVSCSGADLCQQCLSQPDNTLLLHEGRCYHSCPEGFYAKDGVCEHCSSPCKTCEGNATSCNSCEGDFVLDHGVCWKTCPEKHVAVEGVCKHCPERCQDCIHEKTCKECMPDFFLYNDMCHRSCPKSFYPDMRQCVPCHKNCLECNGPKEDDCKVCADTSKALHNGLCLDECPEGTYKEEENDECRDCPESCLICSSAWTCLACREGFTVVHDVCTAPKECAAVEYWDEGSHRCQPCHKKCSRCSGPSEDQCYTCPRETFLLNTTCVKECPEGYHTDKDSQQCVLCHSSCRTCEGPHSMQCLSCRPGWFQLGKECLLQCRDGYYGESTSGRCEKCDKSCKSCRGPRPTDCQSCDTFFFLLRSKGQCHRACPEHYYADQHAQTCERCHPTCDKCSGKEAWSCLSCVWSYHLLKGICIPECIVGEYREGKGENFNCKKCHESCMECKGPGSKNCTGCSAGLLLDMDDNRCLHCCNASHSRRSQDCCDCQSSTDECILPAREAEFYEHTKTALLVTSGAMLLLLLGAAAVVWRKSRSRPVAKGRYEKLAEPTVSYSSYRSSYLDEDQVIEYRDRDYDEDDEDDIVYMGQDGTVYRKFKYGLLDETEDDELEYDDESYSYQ
Excerpt: as §1, §2

[3] = molecular target: T3, recombinant h (human) furin (Homo sapiens, UniProt P09958); assay: In vitro furin assay with Boc-RVRR-MCA (50 µM), aromatic enediyne compounds; type: biochemical; conditions: for inhibition at 100 µM: read-out: Furin inhibition at a single concentration
T3 construct: pure soluble recombinant h (human) furin; purchased New England Biolabs
T3 sequence (P09958 108-715 limits assumed): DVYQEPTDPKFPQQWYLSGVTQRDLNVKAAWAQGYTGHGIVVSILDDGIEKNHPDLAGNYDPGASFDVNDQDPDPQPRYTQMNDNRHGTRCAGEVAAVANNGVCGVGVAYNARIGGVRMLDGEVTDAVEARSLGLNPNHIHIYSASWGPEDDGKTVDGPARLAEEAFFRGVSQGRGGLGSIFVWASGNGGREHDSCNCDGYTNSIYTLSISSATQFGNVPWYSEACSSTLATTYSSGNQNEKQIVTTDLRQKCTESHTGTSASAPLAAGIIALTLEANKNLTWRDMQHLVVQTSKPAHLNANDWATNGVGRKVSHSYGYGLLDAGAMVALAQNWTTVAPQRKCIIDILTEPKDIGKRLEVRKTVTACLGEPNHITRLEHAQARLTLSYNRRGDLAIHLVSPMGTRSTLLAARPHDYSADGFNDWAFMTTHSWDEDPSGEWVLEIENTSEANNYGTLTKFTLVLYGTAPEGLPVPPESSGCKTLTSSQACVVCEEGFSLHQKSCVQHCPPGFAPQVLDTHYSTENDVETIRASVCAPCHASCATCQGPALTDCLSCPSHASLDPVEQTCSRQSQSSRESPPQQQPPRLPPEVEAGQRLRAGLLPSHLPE
Excerpt: Most aromatic enediyne compounds are chemically highly reactive and can easily generate upon heating reactive bis-radical species via Bergman cyclo-aromatization reaction, [32]. It is a possibility that these reactive intermediates may then react with one or more of the catalytic amino acid residues His, Ser or Asp of PC-enzymes leading to chemical modifications of latter. This notion is supported by several studies involving interactions of amino acids either free or within protein sequences [41]–[46]. Based on this rationale we proposed that such types of molecules may therefore inhibit the protease activities of these enzymes. To test this hypothesis, we first synthesized several aromatic enediyne derivatives and examined in vitro their effects on proteolytic activities of three key members of PC-family enzymes namely furin, PC5 and PC7. In vitro enzyme assay of PCs against Boc-RVRR-MCA substrate (50 µM), in the absence and presence of various synthetic aromatic enediyne compounds (Fig. 1) indicated weak to modest inhibitory activities of these compounds. […] This is the first report of PC-inhibitory activity of an enediyne compound. This finding prompted us to the idea of incorporating an enediyne function within a peptide sequence which may enhance the potency and selectivity of furin inhibition. To accomplish this, we designed and synthesized an enediynyl amino acid (Eda) derivative with its amino terminal protected by Fmoc (9H-fluoren-9-ylmethoxy carbonyl) group so that it can be directly used in solid phase peptide synthesis.
Figure 1 List of synthetic aromatic enediyne derivatives and their effects on protease activities of Proprotein Convertases Furin, PC5 and PC7. […] The enzyme assay was carried out by using the fluorogenic peptide substrate Boc-RVRR-MCA (50 µM final concentration) as described in [27]. ND = not determined. TEXT PRINTED IN THE PICTURE: AB-1: MW 438; Furin: 29.9 ± 1.5; PC5: 33% (57 mM); PC7: 30.4 ± 3.5 | AB-2: MW 390; Furin: 10.5 ± 1.8; PC5: 34.5 ± 5.8; PC7: 8.5 ± 1.8 | AB-3: MW 506; Furin: 14.2 ± 1.8; PC5: 17.2± 3.4 | AB-4: MW 258; Furin: 10% at 100 μM | AB-5: MW 259; Furin: 12% at 100 μM | AB-6: MW 780; Furin: 192 ± 6.7 | AB-6-Ni: MW 838; Furin: 160 ± 2.5
While pure soluble recombinant h (human) furin was obtained commercially from New England Biolabs (Boston, Ma, USA), recombinant m (mouse) PC5 and soluble hPC7 were obtained in partially purified form as described earlier.

[4] = tested on: furin-mediated processing of proVEGF-C in CHO cells; assay: Processing of proVEGF-C in CHO cells (western blot); type: cell-based; conditions: 50 µM
Excerpt: (§3) The result was compared in parallel with the commercial furin inhibitor Dec (decanoyl)-RVRR-cmk (chloromethyl ketone) and the 83-mer synthetic full length prodomain protein of hfurin [49]. […] This was reflected by the strong appearance of 22 kDa proPDGF-A band which was completely absent in the control experiment done in parallel without the presence of any inhibitor. […] The effect was compared in parallel with that done with the known furin inhibitor dec-RVRR-cmk.
CHO-cells expressing FLAG-labeled proVEGF-C [57] were grown in DMEM medium as described above in the absence and presence of furin-Eda peptide and the furin inhibitor Dec-RVRR-cmk (each 50 µM concentration). The presence of VEGF-C precursor and its C-terminal processed form generated by furin cleavage were assessed by western blot analysis using FLAG antibody while the level of actin (control house keeping protein) was analyzed by immunoblot for quantitation purpose.

[5] = tested on: furin processing of proPDGF-A in CHO cells; assay: Processing of FLAG-tagged proPDGF-A in CHO cells (western blot); type: cell-based; conditions: 24 h, FLAG antibody western blot
Excerpt: as §3
CHO-cells expressing FLAG-tagged PDGF-A were grown in DMEM medium as described (43) until the cells achieved ∼80% confluency (24 h), At this stage the medium was removed, cells were washed and grown in fresh buffer supplemented with furin-Eda peptide (50 µM final concentration). The media and cells were harvested after another 24 h cell growth. The collected media were concentrated ∼20-fold using centricon filtration system (Amersham Biosciences Inc, cut off MW = 3 kDa) and subjected to western blot analysis using FLAG antibody for the presence of full length proPDGF-A and its C-terminal mature form obtained following cleavage by endogenous furin present in CHO cells. […] For quantitative purpose, each sample was also analyzed for the presence of actin by immunoblot using a specific antibody.

[6] = tested on: furin-mediated processing of pro-PDGF-B in CHO cells; assay: Processing of proPDGF-B in CHO cells (western blot); type: cell-based; conditions: for Block of processing of 31 kDa pro-PDGF-B to 17 kDa mature form: 0.5 to 15 µM
Method: CHO-cells expressing endogenous proPDGF-B [58] were grown as described above in the absence and presence of various concentrations ranging from 0.5 to 15 µM of either furin-Eda peptide or α1-Pdx, a known furin inhibitor [50]. Western blots were performed for the presence of proPDGF-B and its processed form using PDGF-B specific antibody. In parallel samples were also analyzed for actin levels.

C1#Cc2ccccc2C#CCN(Cc2ccccc2)CCN(Cc2ccccc2)C1 [AB-2]
IC50 [1]: 8.5 µM | IC50 ([2]; IC50 for inhibition of PC5, Boc-RVRR-MCA 50 µM final concentration): 34 µM and 34.5 µM | IC50 [3]: 10.5 µM

Cc1ccc(S(=O)(=O)N2CC#Cc3ccccc3C#CCN(S(=O)(=O)c3ccc(C)cc3)c3cccc2c3)cc1 [AB-3]
Effect on PC7 protease activity ([1]; Boc-RVRR-MCA 50 µM): minor protease activating effect | IC50 ([2]; read-out: IC50 for inhibition of PC5, Boc-RVRR-MCA 50 µM final concentration): 17.2 ± 3.4 µM | IC50 ([3]; read-out: IC50 for inhibition of furin, Boc-RVRR-MCA 50 µM final concentration): 14.2 ± 1.8 µM

C1#Cc2ccccc2C#CCNc2cccc(c2)NC1 [AB-4]
inhibition at 100 µM [3]: 10%

C1#Cc2ccccc2C#CCNc2cccc(n2)NC1 [AB-5]
inhibition at 100 µM [3]: 12%

C1#Cc2ccccc2C#CCN(Cc2ccccc2)CCN(Cc2ccccc2)CC#Cc2ccccc2C#CCN(Cc2ccccc2)CCN(Cc2ccccc2)C1 [AB-6]
IC50 [3]: 192 ± 6.7 µM

CC(C)[C@H](NC(=O)[C@H](CCC(N)=O)NC(=O)[C@@H](N)CCC(N)=O)C(=O)N[C@@H](C)C(=O)N[C@@H](CCCCN)C(=O)N[C@@H](CCCNC(=N)N)C(=O)N[C@@H](CCCNC(=N)N)C(=O)N[C@H](C(=O)N[C@@H](CCCCN)C(=O)N[C@@H](CCCNC(=N)N)C(=O)NCCC#Cc1ccccc1C#CCCC(=O)N[C@@H](CC(=O)O)C(=O)N[C@H](C(=O)N[C@@H](Cc1ccc(O)cc1)C(=O)N[C@@H](CCC(N)=O)C(=O)N[C@@H](CCC(=O)O)C(N)=O)C(C)C)[C@@H](C)O [furin-Eda-peptide (II)]
Block of cleavage of 50 kDa proVEGF-C to 28 kDa mature VEGF-C [4]: block significantly | Block of cleavage of 22 kDa pro-PDGF-A to 14 kDa mature PDGF-A ([5]; 50 µM): block efficiently | Effect on formation of 22 kDa intermediate form of PDGF-B [6]: neither inhibitors displayed any effect | Block of processing of 31 kDa pro-PDGF-B to 17 kDa mature form [6]: block furin-mediated processing

Dec (decanoyl)-RVRR-cmk (chloromethyl ketone) [Dec-RVRR-cmk, reference compound]
Block of cleavage of 50 kDa proVEGF-C to 28 kDa mature VEGF-C [4]: block significantly | Block of cleavage of 22 kDa pro-PDGF-A to 14 kDa mature PDGF-A ([5]; 10 and 50 µM): block efficiently

α1-Pdx: bioengineered protein, known potent inhibitor of furin
Effect on formation of 22 kDa intermediate form of PDGF-B [6]: neither inhibitors displayed any effect | Block of processing of 31 kDa pro-PDGF-B to 17 kDa mature form [6]: highly comparable
